{"source": "ChEMBL document CHEMBL5096153", "about": "“Spirocyclic Scaffolds in Medicinal Chemistry” (J Med Chem, 2021)", "key": {"[1]": {"assay": "AUC (0 to 4 hrs) in rat at 5 mg/kg, po", "format": "ADME, organism-based", "parameters": "time < 4 hr, dose 5 mg/kg, route po", "conditions": "in vivo"}, "[2]": {"assay": "Volume of distribution in rat at 2 mg/kg, iv", "format": "ADME, organism-based", "conditions": "in vivo"}, "[3]": {"assay": "Selectivity ratio of Ki for rat liver Sigma2 receptor to Ki for Guinea pig brain Sigma1 receptor"}, "[4]": {"assay": "Cmax in rat plasma at 5 mg/kg, po", "format": "ADME, organism-based", "parameters": "dose 5 mg/kg, route po"}, "[5]": {"assay": "AUC (0 to infinity) in rat plasma at 5 mg/kg, po", "format": "ADME, organism-based", "parameters": "time infinity, dose 5 mg/kg, route po"}, "[6]": {"biological_target": "T1, Retinoic acid receptor RXR-alpha (Homo sapiens) (UniProt P19793)", "T1 sequence (whole entry)": "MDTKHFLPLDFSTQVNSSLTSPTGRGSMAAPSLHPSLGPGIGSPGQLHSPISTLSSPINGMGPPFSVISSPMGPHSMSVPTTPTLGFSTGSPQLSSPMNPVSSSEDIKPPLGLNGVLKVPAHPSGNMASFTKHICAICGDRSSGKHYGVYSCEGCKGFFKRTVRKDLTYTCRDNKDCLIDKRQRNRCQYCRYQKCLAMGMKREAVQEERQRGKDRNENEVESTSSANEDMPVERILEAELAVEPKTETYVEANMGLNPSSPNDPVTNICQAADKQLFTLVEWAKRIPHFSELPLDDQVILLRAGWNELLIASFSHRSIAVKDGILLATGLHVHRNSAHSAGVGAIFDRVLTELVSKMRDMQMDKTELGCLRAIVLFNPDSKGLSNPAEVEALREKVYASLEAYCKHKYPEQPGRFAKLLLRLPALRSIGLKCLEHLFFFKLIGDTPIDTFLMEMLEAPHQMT", "assay": "Agonist activity at RXRalpha (unknown origin) using fluorescein-D22 as substrate by fluorescence polarization assay relative to control"}, "[7]": {"biological_target": "T2, Retinoic acid receptor RXR-alpha (Homo sapiens, UniProt P19793)", "T2 sequence (P19793 whole entry)": "T1 sequence (whole entry)", "assay": "Agonist activity at RXRalpha (unknown origin) using fluorescein-D22 as substrate by fluorescence polarization assay"}, "[8]": {"assay": "Inhibition of Plasmodium vivax SHMT"}, "[9]": {"assay": "Octanol-water partition coefficient, log P of the compound by LC-MS/MS analysis", "format": "physicochemical"}, "[10]": {"assay": "Metabolic stability in human liver microsomes assessed as compound remaining", "format": "ADME, Microsome"}, "Influenza A virus": {"system": "Influenza A virus", "assay": "Antiviral activity against wild-type Influenza A virus A/M2 assessed as viral growth inhibition", "format": "functional, organism-based"}, "[11]": {"biological_target": "NF-kappa-B essential modulator (Homo sapiens, UniProt Q9Y6K9)", "sequence (Q9Y6K9 whole entry, the tested form may be a part)": "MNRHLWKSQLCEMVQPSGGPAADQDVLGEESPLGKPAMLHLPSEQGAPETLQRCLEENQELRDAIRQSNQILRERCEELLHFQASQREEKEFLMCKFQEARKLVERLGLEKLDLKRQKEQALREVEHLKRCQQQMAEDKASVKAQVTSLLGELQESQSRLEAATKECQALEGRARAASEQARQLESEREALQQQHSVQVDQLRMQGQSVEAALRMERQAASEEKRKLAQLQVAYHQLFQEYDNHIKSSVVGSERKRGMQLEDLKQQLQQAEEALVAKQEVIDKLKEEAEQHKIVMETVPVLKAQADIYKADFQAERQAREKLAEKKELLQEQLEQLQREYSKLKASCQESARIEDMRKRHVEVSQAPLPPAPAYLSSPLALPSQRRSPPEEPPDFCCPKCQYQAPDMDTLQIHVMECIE", "assay": "Binding affinity to full-length human NEMO (1 to 419 residues) assessed as dissociation constant"}, "[12]": {"assay": "Cytotoxicity against human HUVEC cells assessed as reduction in cell viability", "format": "toxicity, cell-based"}, "[13]": {"biological_target": "Phosphoglycerate mutase 1 (Homo sapiens, UniProt P18669)", "sequence (P18669 whole entry)": "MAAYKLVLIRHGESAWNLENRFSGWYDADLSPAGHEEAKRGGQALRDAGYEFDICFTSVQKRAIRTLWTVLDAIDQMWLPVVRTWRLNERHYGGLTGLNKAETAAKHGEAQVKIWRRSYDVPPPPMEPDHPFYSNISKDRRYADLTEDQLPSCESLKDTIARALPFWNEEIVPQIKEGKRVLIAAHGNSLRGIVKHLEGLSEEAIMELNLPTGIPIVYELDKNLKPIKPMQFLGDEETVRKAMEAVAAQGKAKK", "assay": "Inhibition of PGAM1 in human MDA-MB-231 cells", "format": "cell-based"}, "MDA-MB-231": {"system": "MDA-MB-231", "assay": "Cytotoxicity against human MDA-MB-231 cells assessed as cell growth inhibition", "format": "functional, cell-based"}}}
{"smiles": "COc1ccc2nc3c(nc2c1)O[C@@H]1C[C@H]2C(=O)N[C@]4(C(=O)NS(=O)(=O)C5(C)CC5)C[C@H]4/C=C\\CCCCC[C@H](NC(=O)O[C@@H]4CCC[C@H]4CCCCC3)C(=O)N2C1", "values": [{"measurement": "AUC(0-t) at 4 h", "setting": "[1]", "value": 0.77, "unit": "µM·h"}, {"measurement": "Vd", "setting": "[2]", "value": 4, "unit": "L/kg"}]}
{"smiles": "c1ccc(CN2CCC3(CCCc4ccccc43)CC2)cc1", "values": [{"measurement": "Ratio Ki", "setting": "[3]", "value": 22}]}
{"smiles": "COc1ccc2nc3c(nc2c1)O[C@@H]1C[C@H]2C(=O)N[C@]4(C(=O)NS(=O)(=O)C5(C)CC5)C[C@H]4/C=C\\CCCCC[C@H](NC(=O)O[C@@H]4CCC[C@H]4CCCCC3)C(=O)N2C1.[K+]", "values": [{"measurement": "Cmax", "setting": "[4]", "value": 70, "unit": "nM"}, {"measurement": "AUC(0-inf)", "setting": "[5]", "value": 2.4, "unit": "µM·h"}]}
{"smiles": "CC1(C)CCC(C)(C)c2cc3c(cc21)CCC1(CCc2cc(C(=O)O)ccc2O1)O3", "note": "(stereo in doubt; form 1) [listing 1 of 2 here]", "values": [{"measurement": "Efficacy", "setting": "[6]; filed as agonist", "value": 54, "unit": "%"}]}
{"smiles": "CC1(C)CCC(C)(C)c2cc3c(cc21)CCC1(CCc2cc(C(=O)O)ccc2O1)O3", "note": "(stereo in doubt; form 1) [listing 2 of 2 here]", "values": [{"measurement": "EC50", "setting": "[7]", "value": 170, "unit": "nM"}]}
{"smiles": "Cc1[nH]nc2c1[C@@]1(C(C#N)=C(N)O2)c2cc(N3CCC(CC(=O)O)CC3)cc(F)c2CC1(C)C", "values": [{"measurement": "IC50", "setting": "[8]", "value": 2510, "unit": "nM"}]}
{"smiles": "CC1(C)CCC(C)(C)c2cc3c(cc21)CCC1(CCc2cc(C(=O)O)ccc2O1)O3", "note": "(stereo in doubt; form 2) [listing 1 of 2 here]", "values": [{"measurement": "Efficacy", "setting": "[6]", "value": 26, "unit": "%"}]}
{"smiles": "O=C1Nc2cc(C(F)(F)F)ccc2C12Cc1ccccc1B(O)O2", "note": "(centres undefined)", "values": [{"measurement": "logP", "setting": "[9]", "value": "< 4"}, {"measurement": "Stability", "setting": "[10]", "value": "> 80", "unit": "%"}]}
{"smiles": "NC1CC[Si]2(CCCC2)CC1", "values": [{"measurement": "IC50", "setting": "Influenza A virus", "value": 7.8, "unit": "µM"}]}
{"smiles": "O=C1Nc2ccc(Cl)cc2C12Cc1ccccc1B(O)O2", "note": "(centres undefined)", "values": [{"measurement": "logP", "setting": "[9]", "value": "< 4"}, {"measurement": "Stability", "setting": "[10]", "value": "> 80", "unit": "%"}]}
{"smiles": "c1ccc(CN2CC[Si]3(CCCc4ccccc43)CC2)cc1", "values": [{"measurement": "Ratio Ki", "setting": "[3]", "value": 221}]}
{"smiles": "O=C1Nc2cc(Cl)ccc2C12Cc1ccccc1B(O)O2", "note": "(centres undefined)", "values": [{"measurement": "logP", "setting": "[9]", "value": "< 4"}, {"measurement": "Stability", "setting": "[10]", "value": "> 80", "unit": "%"}]}
{"smiles": "O=C1Nc2ccccc2C12Cc1ccccc1B(O)O2", "note": "(centres undefined)", "values": [{"measurement": "logP", "setting": "[9]", "value": "< 4"}, {"measurement": "Stability", "setting": "[10]", "value": "> 80", "unit": "%"}]}
{"smiles": "CC1(C)CCC(C)(C)c2cc3c(cc21)CCC1(CCc2cc(C(=O)O)ccc2O1)O3", "note": "(stereo in doubt; form 2) [listing 2 of 2 here]", "values": [{"measurement": "EC50", "setting": "[7]", "value": 1200, "unit": "nM"}]}
{"smiles": "CC1(C)CCC(C)(C)c2cc3c(cc21)CCC1(CCc2cc(C(=O)O)ccc2O1)O3", "note": "(racemic) [listing 1 of 2 here]", "values": [{"measurement": "Efficacy", "setting": "[6]; filed as agonist", "value": 53, "unit": "%"}]}
{"smiles": "CC1(C)CCC(C)(C)c2cc3c(cc21)CCC1(CCc2cc(C(=O)O)ccc2O1)O3", "note": "(racemic) [listing 2 of 2 here]", "values": [{"measurement": "EC50", "setting": "[7]", "value": 730, "unit": "nM"}]}
{"smiles": "Cc1ccc([C@@H]2[C@H]3C=C(C=O)[C@@H](c4ccc(C)cc4)[C@H]([N+](=O)[O-])[C@@H]3C[C@]23C(=O)N(C)c2ccccc23)cc1", "values": [{"measurement": "Kd", "setting": "[11]", "value": 190, "unit": "nM"}]}
{"smiles": "CN1C(=O)C2(Cc3ccccc3B(O)O2)c2ccccc21", "note": "(centres undefined)", "values": [{"measurement": "logP", "setting": "[9]", "value": "< 4"}, {"measurement": "Stability", "setting": "[10]", "value": "> 80", "unit": "%"}]}
{"smiles": "Cc1[nH]nc2c1[C@]1(C(C#N)=C(N)O2)c2cc(N3CCC(CC(=O)O)CC3)cc(F)c2CC1(C)C", "values": [{"measurement": "IC50", "setting": "[8]", "value": 43, "unit": "nM"}]}
{"smiles": "Cc1ccc([C@@H]2[C@H]3C=C(C=O)[C@@H](c4ccc(C)cc4)[C@H]([N+](=O)[O-])[C@@H]3C[C@@]23C(=O)N(C)c2ccccc23)cc1", "values": [{"measurement": "Kd", "setting": "[11]", "value": 80, "unit": "nM"}]}
{"smiles": "NC1CCC2(CCCC2)CC1", "values": [{"measurement": "IC50", "setting": "Influenza A virus", "value": 3.3, "unit": "µM"}]}
{"smiles": "COc1ccc(Cn2nnc3c2[C@]2(CC[C@H]3OC(=O)NC(C)C)CO2)cc1", "values": [{"measurement": "EC50", "setting": "[12]", "value": 94, "unit": "nM"}]}
{"smiles": "O=C1Nc2ccc(F)cc2C12Cc1ccccc1B(O)O2", "note": "(centres undefined)", "values": [{"measurement": "logP", "setting": "[9]", "value": "< 4"}, {"measurement": "Stability", "setting": "[10]", "value": "> 80", "unit": "%"}]}
{"smiles": "Cc1[nH]nc2c1C1(C(C#N)=C(N)O2)c2cc(N3CCC(CC(=O)O)CC3)cc(F)c2CC1(C)C", "note": "(racemic)", "values": [{"measurement": "IC50", "setting": "[8]", "value": 61, "unit": "nM"}]}
{"smiles": "C#CCCCC(=O)OC(C)(C)C1CCC2(CO2)C(OC(=O)N[C@@H](Cc2c[nH]c3ccccc23)C(=O)OCc2ccccc2)C1", "note": "(some centres undefined)", "values": [{"measurement": "IC50", "setting": "[13]", "value": 33, "unit": "µM"}, {"measurement": "IC50", "setting": "MDA-MB-231", "value": 19, "unit": "µM"}]}
